Measured values from patent publication US5620958A, “Bradykinin antagonists” (Coretech, Inc., priority 1994, dated 1997).
Square brackets hold non-standard residues; d marks the D form. Peptide text beside a SMILES is read from it. Oic = O=C(O)[C@@H]1C[C@@H]2CCCC[C@@H]2N1; Hyp = O=C(O)[C@@H]1C[C@@H](O)CN1; dTic = O=C(O)[C@H]1Cc2ccccc2CN1; 2Thi = N[C@@H](Cc1cccs1)C(=O)O

Key:
BK2 receptor [1] = biological target: T1, BK2 receptor (Cavia porcellus, UniProt O70526); test: guinea-pig ileum (GPI) in vitro, antagonism of BK; type: cell-based; details: Table B; read-out: pA2 GUINEA PIG ILEUM (converted)
T1 construct: tested for activity on guinea pig ileum in vitro on the standard tissue bath/strain gauge system; from tissue; host or cells: guinea pig ileum
T1 sequence (O70526 1-372): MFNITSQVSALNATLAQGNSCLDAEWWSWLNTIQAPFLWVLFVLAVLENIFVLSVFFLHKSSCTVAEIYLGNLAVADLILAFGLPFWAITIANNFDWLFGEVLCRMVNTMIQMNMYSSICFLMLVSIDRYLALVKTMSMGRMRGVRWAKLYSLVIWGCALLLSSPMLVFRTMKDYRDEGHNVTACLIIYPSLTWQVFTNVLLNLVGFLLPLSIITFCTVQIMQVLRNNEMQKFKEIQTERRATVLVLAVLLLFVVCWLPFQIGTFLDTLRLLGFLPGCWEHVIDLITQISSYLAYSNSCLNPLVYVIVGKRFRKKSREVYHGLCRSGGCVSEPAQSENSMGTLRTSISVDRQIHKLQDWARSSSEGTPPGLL
Experimental: Thus, in vitro studies were performed on standard assay systems, namely, guinea-pig ileum (GPI), rat uterus (RU) and rabbit jugular vein (RJV). […] The potency of each compound was assessed as a pA2 value according to the method of Arunlakshana & Schild, Br. J. Pharmacol. Chemother., 1.4:48-58 (1959). The pA2 can be defined as the negative logarithm of the molar concentration of the antagonist in the presence of which the potency of the agonist is reduced two-fold, i.e., twice the amount of agonist is required to produce a given response in the presence of, than in the absence of, the antagonist. A high potency of antagonism is indicated by a high pA2 value, i.e., a low concentration of antagonist is effective.
The percentage recovery (% Rec) was also determined for compounds with respect to each assay.
The various compounds identified in Table B below were prepared following the procedure of Example 1 with the Cys moiety introduced into the parent CP-0088 at the position indicated followed by reaction between the sulfhydryl group of the Cys residue and BMH to provide dimers as indicated. The Cys-modified monomers and the resultant dimers were tested for activity on guinea pig ileum in vitro on the standard tissue bath/strain gauge system as before.

BK2 receptor [2] = biological target: T2, BK2 receptor (Rattus norvegicus, UniProt P25023); test: cell-based
T2 sequence (P25023 1-396): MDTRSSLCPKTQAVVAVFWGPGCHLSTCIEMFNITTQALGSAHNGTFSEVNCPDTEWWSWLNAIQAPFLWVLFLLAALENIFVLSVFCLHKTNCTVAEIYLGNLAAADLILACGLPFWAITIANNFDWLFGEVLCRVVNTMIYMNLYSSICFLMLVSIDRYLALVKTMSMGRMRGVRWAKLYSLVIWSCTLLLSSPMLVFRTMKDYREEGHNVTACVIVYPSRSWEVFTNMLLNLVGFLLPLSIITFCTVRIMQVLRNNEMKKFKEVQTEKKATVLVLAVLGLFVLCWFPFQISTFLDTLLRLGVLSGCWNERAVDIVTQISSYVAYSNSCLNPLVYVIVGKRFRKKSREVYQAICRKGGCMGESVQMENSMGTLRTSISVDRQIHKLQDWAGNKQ

BK2 receptor [3] = biological target: T3, BK2 receptor (Oryctolagus cuniculus, UniProt Q28642); test: blood pressure response to BK2 agonist in LPS-pretreated rabbits; type: in vivo, rabbit; parameters: key to OBSERVED ANTAGONIST ACTIVITY BK2: +: indicates complete blockade of the blood pressure response to the appropriate agonist; +/-: indicates partial blockade; -: indicates no observable effect at the dose indicated; details: rabbits given LPS (10 μg) 20 hours before
T3 construct: when administered to an intact animal; from tissue; host or cells: whole rabbit (systemic arterial blood pressure), LPS-pretreated
T3 sequence (Q28642 1-367): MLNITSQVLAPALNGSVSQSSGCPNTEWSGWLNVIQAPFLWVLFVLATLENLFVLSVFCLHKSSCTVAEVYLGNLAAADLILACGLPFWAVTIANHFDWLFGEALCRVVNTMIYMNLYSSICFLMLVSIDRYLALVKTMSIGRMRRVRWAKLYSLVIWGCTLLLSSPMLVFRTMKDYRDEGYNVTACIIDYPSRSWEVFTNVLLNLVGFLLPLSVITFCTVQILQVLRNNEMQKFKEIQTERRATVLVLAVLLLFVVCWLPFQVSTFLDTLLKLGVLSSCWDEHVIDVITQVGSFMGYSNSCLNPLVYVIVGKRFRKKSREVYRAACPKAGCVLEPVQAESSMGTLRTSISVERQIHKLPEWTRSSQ

BK1 receptor = biological target: T4, BK1 receptor (Oryctolagus cuniculus, UniProt P48748); test: blood pressure response to BK1 agonist in LPS-pretreated rabbits; type: in vivo, rabbit; details: rabbits given LPS (10 μg) 20 hours before
T4 construct: when administered to an intact animal; from tissue; host or cells: whole rabbit (systemic arterial blood pressure), LPS-pretreated
T4 sequence (P48748 1-352): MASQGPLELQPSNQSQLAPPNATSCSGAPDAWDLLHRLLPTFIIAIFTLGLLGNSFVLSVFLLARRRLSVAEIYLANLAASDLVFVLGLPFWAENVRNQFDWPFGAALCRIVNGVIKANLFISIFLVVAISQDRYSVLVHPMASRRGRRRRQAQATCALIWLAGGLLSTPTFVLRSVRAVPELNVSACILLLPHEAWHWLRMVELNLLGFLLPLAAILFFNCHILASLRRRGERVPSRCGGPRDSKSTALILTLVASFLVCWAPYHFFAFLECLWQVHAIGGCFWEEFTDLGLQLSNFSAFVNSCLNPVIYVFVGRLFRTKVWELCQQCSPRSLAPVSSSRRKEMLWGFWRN

Compound	Kb (BK2 receptor [1])	Kb (BK2 receptor [2])	OBSERVED ANTAGONIST ACTIVITY BK2 (BK2 receptor [3]; 1 μg kg^-1 min^-1)	OBSERVED ANTAGONIST ACTIVITY BK2 (BK2 receptor [3]; 3 μg kg^-1 min^-1)	OBSERVED ANTAGONIST ACTIVITY BK2 (BK2 receptor [3]; 10 μg kg^-1 min^-1)	OBSERVED ANTAGONIST ACTIVITY BK1 (BK1 receptor; 1 μg kg^-1 min^-1)	OBSERVED ANTAGONIST ACTIVITY BK1 (BK1 receptor; 3 μg kg^-1 min^-1)	OBSERVED ANTAGONIST ACTIVITY BK1 (BK1 receptor; 10 μg kg^-1 min^-1)
CC(C)C[C@H](NC(=O)[C@@H](Cc1ccccc1)NC(=O)[C@H](CO)NC(=O)[C@H](Cc1ccccc1)NC(=O)CNC(=O)[C@@H]1C[C@@H](O)CN1C(=O)[C@H](CS)NC(=O)[C@H](CCCNC(=N)N)NC(=O)[C@H](N)CCCNC(=N)N)C(=O)N[C@@H](CCCNC(=N)N)C(=O)O [CP-0142] (HELM PEPTIDE1{[dR].R.C.[Hyp].G.F.S.[dF].L.R}$$$$V2.0)	> 1000 nM							
CC(C)C[C@H](NC(=O)[C@@H](Cc1ccccc1)NC(=O)[C@H](CO)NC(=O)[C@H](Cc1ccccc1)NC(=O)CNC(=O)[C@H](CS)NC(=O)[C@@H]1CCCN1C(=O)[C@H](CCCNC(=N)N)NC(=O)[C@H](N)CCCNC(=N)N)C(=O)N[C@@H](CCCNC(=N)N)C(=O)O [CP-0143] (HELM PEPTIDE1{[dR].R.P.C.G.F.S.[dF].L.R}$$$$V2.0)	200 nM							
CC(C)C[C@H](NC(=O)[C@@H](Cc1ccccc1)NC(=O)[C@H](CSC1CC(=O)N(CCCCCCCCCN2C(=O)CC(SC[C@H](NC(=O)[C@H](Cc3ccccc3)NC(=O)CNC(=O)[C@@H]3C[C@@H](O)CN3C(=O)[C@@H]3CCCN3C(=O)[C@H](CCCNC(=N)N)NC(=O)[C@H](N)CCCNC(=N)N)C(=O)N[C@H](Cc3ccccc3)C(=O)N[C@@H](CC(C)C)C(=O)N[C@@H](CCCNC(=N)N)C(=O)O)C2=O)C1=O)NC(=O)[C@H](Cc1ccccc1)NC(=O)CNC(=O)[C@@H]1C[C@@H](O)CN1C(=O)[C@@H]1CCCN1C(=O)[C@H](CCCNC(=N)N)NC(=O)[C@H](N)CCCNC(=N)N)C(=O)N[C@@H](CCCNC(=N)N)C(=O)O (stereo partly shown) [CP-0229] (HELM PEPTIDE1{[dR].R.P.[Hyp].G.F.C.[dF].L.R}|PEPTIDE2{[dR].R.P.[Hyp].G.F.C.[dF].L.R}|CHEM1{[O=C1CC([*:1])C(=O)N1CCCCCCCCCN1C(=O)CC([*:2])C1=O]}$PEPTIDE1,CHEM1,7:R3-1:R1|PEPTIDE2,CHEM1,7:R3-1:R2$$$V2.0)		0.501 nM						
CC(C)C[C@H](NC(=O)[C@@H](Cc1ccccc1)NC(=O)[C@H](CSC1CC(=O)N(CCCCCCCCCCN2C(=O)CC(SC[C@H](NC(=O)[C@H](Cc3ccccc3)NC(=O)CNC(=O)[C@@H]3C[C@@H](O)CN3C(=O)[C@@H]3CCCN3C(=O)[C@H](CCCNC(=N)N)NC(=O)[C@H](N)CCCNC(=N)N)C(=O)N[C@H](Cc3ccccc3)C(=O)N[C@@H](CC(C)C)C(=O)N[C@@H](CCCNC(=N)N)C(=O)O)C2=O)C1=O)NC(=O)[C@H](Cc1ccccc1)NC(=O)CNC(=O)[C@@H]1C[C@@H](O)CN1C(=O)[C@@H]1CCCN1C(=O)[C@H](CCCNC(=N)N)NC(=O)[C@H](N)CCCNC(=N)N)C(=O)N[C@@H](CCCNC(=N)N)C(=O)O (stereo partly shown) [CP-0230] (HELM PEPTIDE1{[dR].R.P.[Hyp].G.F.C.[dF].L.R}|PEPTIDE2{[dR].R.P.[Hyp].G.F.C.[dF].L.R}|CHEM1{[O=C1CC([*:1])C(=O)N1CCCCCCCCCCN1C(=O)CC([*:2])C1=O]}$PEPTIDE1,CHEM1,7:R3-1:R1|PEPTIDE2,CHEM1,7:R3-1:R2$$$V2.0)		2.51 nM						
N=C(N)NCCC[C@@H](N)C(=O)N[C@@H](CCCNC(=N)N)C(=O)N1CCC[C@H]1C(=O)N1C[C@H](O)C[C@H]1C(=O)NCC(=O)N[C@@H](Cc1ccccc1)C(=O)N[C@@H](CO)C(=O)N1Cc2ccccc2C[C@@H]1C(=O)N1[C@H](C(=O)O)C[C@@H]2CCCC[C@@H]21 [CP-0267] (HELM PEPTIDE1{[dR].R.P.[Hyp].G.F.S.[O=C([C@H]1Cc2ccccc2CN1[*:1])[*:2]].[O=C(O)[C@@H]1C[C@@H]2CCCC[C@@H]2N1[*:1]]}$$$$V2.0)			-	-	+/-	-	-	+
CC(C)C[C@H](NC(=O)[C@@H]1CCCN1C(=O)[C@H](CO)NC(=O)[C@H](Cc1ccccc1)NC(=O)CNC(=O)[C@@H]1CCCN1C(=O)[C@@H]1CCCN1C(=O)[C@H](CCCNC(=N)N)NC(=O)[C@@H](N)CCCCN)C(=O)O [CP-0298, Lys^0Arg^1Pro^2Pro^3Gly^4Phe^5Ser^6Pro^7Leu^8, reference compound]			-	-	-	+	+	+
N=C(N)NCCC[C@@H](N)C(=O)N[C@@H](CCCNC(=N)N)C(=O)N1CCC[C@H]1C(=O)N1C[C@H](O)C[C@H]1C(=O)NCC(=O)N[C@@H](Cc1cccs1)C(=O)N[C@@H](CO)C(=O)N1Cc2ccccc2C[C@@H]1C(=O)N1[C@H](C(=O)O)C[C@@H]2CCCC[C@@H]21 [CP-0345] (H-[dR]RP[Hyp]G[2Thi]S[dTic][Oic]-OH; N-terminus and C-terminus assumed)			-	+/-	+	-	+	+
CC(C)C[C@H](NC(=O)[C@@H](Cc1ccccc1)NC(=O)[C@H](CO)NC(=O)[C@H](Cc1ccccc1)NC(=O)CNC(=O)[C@@H]1C[C@@H](O)CN1C(=O)[C@@H]1CCCN1C(=O)[C@H](CSC1CC(=O)N(CCCCCCN2C(=O)CC(SC[C@H](NC(=O)[C@H](Cc3ccccc3)NC(=O)CNC(=O)[C@@H]3C[C@@H](O)CN3C(=O)[C@@H]3CCCN3C(=O)[C@H](CCCNC(=N)N)NC(=O)[C@H](N)CCCNC(=N)N)C(=O)N[C@H](Cc3ccccc3)C(=O)N[C@@H](CC(C)C)C(=O)N[C@@H](CCCNC(=N)N)C(=O)O)C2=O)C1=O)NC(=O)[C@H](N)CCCNC(=N)N)C(=O)O (stereo partly shown) [CP-0386] (HELM PEPTIDE1{[dR].R.P.[Hyp].G.F.C.[dF].L.R}|PEPTIDE2{[dR].C.P.[Hyp].G.F.S.[dF].L}|CHEM1{[O=C1CC([*:1])C(=O)N1CCCCCCN1C(=O)CC([*:2])C1=O]}$PEPTIDE1,CHEM1,7:R3-1:R1|PEPTIDE2,CHEM1,2:R3-1:R2$$$V2.0; N-terminus and C-terminus assumed)			+	+	+	+	+	+
